Consider 22 compounds from patent publication US20180148418A1, “AMIDO-SUBSTITUTED CYCLOHEXANE DERIVATIVES” (Bayer Pharma Aktiengesellschaft, priority 2015, published 2018).

By IC50 is commonly meant the concentration needed to halve the response being measured. Read a low IC50 as greater potency.

The subject of experiment [1] is wildtype Wnt signaling cascade. Kind of experiment: HEK293 TOP assay (Super TopFlash luciferase reporter, Wnt-3a stimulated). The class given is cell-based. The conditions noted are these: Homo sapiens, HEK293, 16 h, HEK293 TOP reporter cells, Wnt3a at EC50, 16 hours. Summed up:
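HEK293 cells stably carrying Super TopFlash (TOP) run in parallel with FOP cells, 10000/well plated 24 h ahead, stimulated with recombinant human Wnt-3a. Compounds tested 50 μM to 15 nM in 3.16-fold steps in CAFTY buffer pH 7.4 with 2 mM Ca^2+ and 0.01% BSA; luciferase read-out.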

Another experiment has as its target T1, TNKS2 (Homo sapiens, UniProt Q9H2K2).
T1 construct: purchased BPS Bioscience, San Diego, USA 80572 (TNKS2 Histone Ribosylation Assay Kit)
T1 sequence (Q9H2K2 1-1166): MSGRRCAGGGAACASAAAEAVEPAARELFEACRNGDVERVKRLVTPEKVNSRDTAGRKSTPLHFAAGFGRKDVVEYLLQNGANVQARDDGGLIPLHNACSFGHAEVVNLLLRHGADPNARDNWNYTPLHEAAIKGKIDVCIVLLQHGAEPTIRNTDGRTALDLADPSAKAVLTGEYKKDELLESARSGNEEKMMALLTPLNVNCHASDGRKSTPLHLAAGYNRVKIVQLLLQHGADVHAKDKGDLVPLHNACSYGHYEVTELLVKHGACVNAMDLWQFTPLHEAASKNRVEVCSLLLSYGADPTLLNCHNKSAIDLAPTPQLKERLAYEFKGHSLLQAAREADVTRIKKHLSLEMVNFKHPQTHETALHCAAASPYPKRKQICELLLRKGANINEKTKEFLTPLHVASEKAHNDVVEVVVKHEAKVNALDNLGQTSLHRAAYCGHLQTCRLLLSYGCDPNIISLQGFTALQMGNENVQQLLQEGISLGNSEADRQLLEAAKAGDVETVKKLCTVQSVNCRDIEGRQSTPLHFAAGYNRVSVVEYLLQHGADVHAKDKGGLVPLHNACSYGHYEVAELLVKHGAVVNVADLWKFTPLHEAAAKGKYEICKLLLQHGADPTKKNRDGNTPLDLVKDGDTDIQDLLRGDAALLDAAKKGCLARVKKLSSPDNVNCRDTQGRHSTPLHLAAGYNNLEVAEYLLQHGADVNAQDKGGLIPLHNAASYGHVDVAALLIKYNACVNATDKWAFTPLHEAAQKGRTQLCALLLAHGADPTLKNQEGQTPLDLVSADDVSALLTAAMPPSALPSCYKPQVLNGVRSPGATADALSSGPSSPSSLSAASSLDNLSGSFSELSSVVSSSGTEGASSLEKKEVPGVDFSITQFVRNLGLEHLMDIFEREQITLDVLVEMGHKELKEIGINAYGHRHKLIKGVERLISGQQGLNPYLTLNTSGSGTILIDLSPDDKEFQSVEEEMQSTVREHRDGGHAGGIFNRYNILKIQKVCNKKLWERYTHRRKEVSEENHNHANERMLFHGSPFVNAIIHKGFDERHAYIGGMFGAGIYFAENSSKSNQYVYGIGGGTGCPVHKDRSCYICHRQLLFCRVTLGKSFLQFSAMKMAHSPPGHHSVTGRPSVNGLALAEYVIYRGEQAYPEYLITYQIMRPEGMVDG
Kind of experiment: TNKS2 Assay B (auto-parsylation, [3H]-NAD+ SPA). The class given is biochemical. The conditions noted are these: 6 nM TNKS2, auto-parsylation, over night at room temperature.

With `O=C(NCC1CCCO1)c1nc[nH]c1C(=O)N[C@H]1CC[C@H](C(=O)Nc2cc(F)ccc2Cl)CC1` (stereo partly drawn) [Example 129, N^5-{trans-4-[(2-chloro-5-fluorophenyl)carbamoyl]cyclohexyl}-N^4-(tetrahydrofuran-2-ylmethyl)-1H-imidazole-4,5-dicarboxamide], the IC50 in experiment [1] was 410 nM; at TNKS2, 34 nM.
With `CNC(=O)c1nc[nH]c1C(=O)N[C@H]1CC[C@H](C(=O)Nc2ccc(F)cc2)CC1` [Example 8, N^5-{trans-4-[(4-fluorophenyl)carbamoyl]cyclohexyl}-N^4-methyl-1H-imidazole-4,5-dicarboxamide], the values for the 50% inhibitory concentration (IC50) (in experiment [1]; against TNKS2) were 2100 nM and 2300 nM, respectively.
As for `Cc1cc(F)cc(Cl)c1NC(=O)[C@H]1CC[C@H](NC(=O)c2cnn3cccnc23)CC1` [Example 151, N-{trans-4-[(2-chloro-4-fluoro-6-methylphenyl)carbamoyl]cyclohexyl}pyrazolo[1,5-a]pyrimidine-3-carboxamide], the IC50 is 110 nM in experiment [1] and 150 nM on TNKS2.
In the same order, the values of `COCc1cc(C)n2ncc(C(=O)N[C@H]3CC[C@H](C(=O)Nc4c(F)cc(F)cc4Cl)CC3)c2n1` [Example 112, N-{trans-4-[(2-chloro-4,6-difluorophenyl)carbamoyl]cyclohexyl}-5-(methoxymethyl)-7-methylpyrazolo[1,5-a]pyrimidine-3-carboxamide] are 190 nM and 68 nM.
For `COC(C)(C)CNC(=O)c1nc[nH]c1C(=O)N[C@H]1CC[C@H](C(=O)Nc2cc(C)c(F)cc2Cl)CC1` [Example 101, N^5-{trans-4-[(2-chloro-4-fluoro-5-methylphenyl)carbamoyl]cyclohexyl}-N^4-(2-methoxy-2-methylpropyl)-1H-imidazole-4,5-dicarboxamide] the same measures were 360 nM and 100 nM.
In the same order, the values of `CN1CCN(c2ccn3ncc(C(=O)N[C@H]4CC[C@H](C(=O)Nc5ccc(F)cc5Cl)CC4)c3n2)CC1` [Example 109] are 3000 nM and 38 nM.
Take `Cc1cc(C)n2ncc(C(=O)N[C@H]3CC[C@@]4(CCN(c5ccc(F)cc5Cl)C4=O)CC3)c2n1` [Example 139, N-[(trans)-2-(2-chloro-4-fluorophenyl)-1-oxo-2-azaspiro[4.5]dec-8-yl]-5,7-dimethylpyrazolo[1,5-a]pyrimidine-3-carboxamide]: the 50% inhibitory concentration (IC50) was found to be 1.1 nM in experiment [1] and 4.2 nM against TNKS2.
For `CNC(=O)c1nc[nH]c1C(=O)N[C@H]1CC[C@H](C(=O)Nc2cnccc2Cl)CC1` [Example 96, N^5-{trans-4-[(4-chloropyridin-3-yl)carbamoyl]cyclohexyl}-N^4-methyl-1H-imidazole-4,5-dicarboxamide] the same measures were 22 nM and 28 nM.
For `O=C(N[C@H]1CC[C@H](C(=O)Nc2ccncc2Cl)CC1)c1cnn2cccnc12` [Example 105, N-{trans-4-[(3-chloropyridin-4-yl)carbamoyl]cyclohexyl}pyrazolo[1,5-a]pyrimidine-3-carboxamide] the same measures were 240 nM and 120 nM.
In the same order, the values of `O=C(N[C@H]1CC[C@H](C(=O)Nc2ccc(F)cc2Cl)CC1)c1cnn2ccc(N3CCOCC3)nc12` [Example 107, N-{trans-4-[(2-chloro-4-fluorophenyl)carbamoyl]cyclohexyl}-5-(morpholin-4-yl)pyrazolo[1,5-a]pyrimidine-3-carboxamide] are 880 nM and 74 nM.
Consider `Cc1cnc2c(C(=O)N[C@H]3CC[C@@]4(CCN(c5ccc(F)cc5Cl)C4=O)CC3)cnn2c1` [Example 137, N-[(trans)-2-(2-chloro-4-fluorophenyl)-1-oxo-2-azaspiro[4.5]dec-8-yl]-6-methylpyrazolo[1,5-a]pyrimidine-3-carboxamide], for which the IC50 is 5000 nM in experiment [1] and 3.3 nM against TNKS2.
Consider `COCC(C)NC(=O)c1nc[nH]c1C(=O)N[C@H]1CC[C@@]2(CCN(c3ccc(F)cc3Cl)C2=O)CC1` (mixture of isomers) [Example 164, N^5-[(trans)-2-(2-chloro-4-fluorophenyl)-1-oxo-2-azaspiro[4.5]dec-8-yl]-N^4-(1-methoxypropan-2-yl)-1H-imidazole-4,5-dicarboxamide], for which the half-maximal inhibitory concentration (IC50) in experiment [1] was found to be 9.2 nM; against TNKS2, 28 nM.
In the same order, the values of `O=C(NC12CCC(C(=O)Nc3cnccc3Cl)(CC1)CC2)c1cnn2cccnc12` [Example 120, N-{4-[(4-chloropyridin-3-yl)carbamoyl]bicyclo[2.2.2]oct-1-yl}pyrazolo[1,5-a]pyrimidine-3-carboxamide] are 140 nM and 260 nM.
In the case of `Cc1cc(NC(=O)C23CCC(NC(=O)c4cnc5cccnn45)(CC2)CC3)c(Cl)cc1F` [Example 122, N-{4-[(2-chloro-4-fluoro-5-methylphenyl)carbamoyl]bicyclo[2.2.2]oct-1-yl}imidazo[1,2-b]pyridazine-3-carboxamide], the values for the 50% inhibitory concentration (IC50) (in experiment [1]; on TNKS2) were 470 nM and 190 nM, respectively.
Take `CNC(=O)c1nc[nH]c1C(=O)N[C@H]1CC[C@H](C(=O)Nc2cc(C(F)(F)F)ccc2Cl)CC1` [Example 142, N^5-(trans-4-{[2-chloro-5-(trifluoromethyl)phenyl]carbamoyl}cyclohexyl)-N^4-methyl-1H-imidazole-4,5-dicarboxamide]: the 50% inhibitory concentration (IC50) in experiment [1] is 68 nM; against TNKS2 it was 80 nM.
`O=C(N[C@H]1CC[C@@]2(CCN(c3ccc(F)cc3Cl)C2=O)CC1)c1cnn2cccnc12` [Example 136, N-[(trans)-2-(2-chloro-4-fluorophenyl)-1-oxo-2-azaspiro[4.5]dec-8-yl]pyrazolo[1,5-a]pyrimidine-3-carboxamide]: the half-maximal inhibitory concentration (IC50) turned out to be 1.2 nM in experiment [1] and 4.7 nM on TNKS2.
Consider `CNC(=O)c1nc[nH]c1C(=O)N[C@H]1CC[C@H](C(=O)Nc2cc(OC)c(OC)cc2Cl)CC1` [Example 5, N^5-{trans-4-[(2-chloro-4,5-dimethoxyphenyl)carbamoyl]cyclohexyl}-N^4-methyl-1H-imidazole-4,5-dicarboxamide], for which the values for the IC50 (in experiment [1]; against TNKS2) were 190 nM and 110 nM, respectively.
For `CC1CCN(CCNC(=O)c2nc[nH]c2C(=O)N[C@H]2CC[C@@]3(CCN(c4ccc(F)cc4Cl)C3=O)CC2)CC1` [Example 160, N^5-[(trans)-2-(2-chloro-4-fluorophenyl)-1-oxo-2-azaspiro[4.5]dec-8-yl]-N^4-[2-(4-methylpiperidin-1-yl)ethyl]-1H-imidazole-4,5-dicarboxamide] the same measures were 13 nM and 3.4 nM.
For `Cc1cc(C)n2ncc(C(=O)N[C@H]3CC[C@H](C(=O)Nc4c(F)cc(F)cc4Cl)CC3)c2n1` [Example 135, N-{trans-4-[(2-chloro-4,6-difluorophenyl)carbamoyl]cyclohexyl}-5,7-dimethylpyrazolo[1,5-a]pyrimidine-3-carboxamide] the same measures were 38 nM and 29 nM.
For `COCCNC(=O)c1nc[nH]c1C(=O)N[C@H]1CC[C@@]2(CCN(c3ccc(F)cc3Cl)C2=O)CC1` [Example 163, N^5-[(trans)-2-(2-chloro-4-fluorophenyl)-1-oxo-2-azaspiro[4.5]dec-8-yl]-N^4-(2-methoxyethyl)-1H-imidazole-4,5-dicarboxamide] the same measures were 2.4 nM and 5.9 nM.
In the case of `Cc1cc(C)n2ncc(C(=O)N[C@H]3CC[C@H](C(=O)Nc4cc(F)c(F)cc4Cl)CC3)c2n1` [Example 134, N-{trans-4-[(2-chloro-4,5-difluorophenyl)carbamoyl]cyclohexyl}-5,7-dimethylpyrazolo[1,5-a]pyrimidine-3-carboxamide], the values for the IC50 (in experiment [1]; against TNKS2) were 140 nM and 33 nM, respectively.
In the case of `Cc1cc(C)n2ncc(C(=O)NC34CCC(C(=O)Nc5cc(C)c(F)cc5Cl)(CC3)CC4)c2n1` [Example 126, N-{4-[(2-chloro-4-fluoro-5-methylphenyl)carbamoyl]bicyclo[2.2.2]oct-1-yl}-5,7-dimethylpyrazolo[1,5-a]pyrimidine-3-carboxamide], the figures for the IC50 (in experiment [1]; against TNKS2) were 190 nM and 65 nM, respectively.
